The text below walks through data of patent US11584714B2 (priority 2018, dated 2023).

What all share (format): biochemical
For one assay, the target named is MASP-2 (CCP1-CCP2-SP) (Homo sapiens (Human), UniProt O00187). Briefly: biochemical. Conditions: for MASP-2 vs. thrombin selectivity: selectivity for MASP-2 inhibition versus thrombin.
A further assay deals with mMASP-2 (Mus musculus (Mouse), UniProt Q91WP0). Briefly: Enzymatic inhibition of mMASP-2.
The next assay deals with human α-thrombin (Homo sapiens (Human), UniProt P00734). Briefly: Enzymatic assay for thrombin (Boc-VPR-AMC substrate).

Where two headings read alike, the source gives them in different places.

Sequence of mMASP-2 (Q91WP0 20-685): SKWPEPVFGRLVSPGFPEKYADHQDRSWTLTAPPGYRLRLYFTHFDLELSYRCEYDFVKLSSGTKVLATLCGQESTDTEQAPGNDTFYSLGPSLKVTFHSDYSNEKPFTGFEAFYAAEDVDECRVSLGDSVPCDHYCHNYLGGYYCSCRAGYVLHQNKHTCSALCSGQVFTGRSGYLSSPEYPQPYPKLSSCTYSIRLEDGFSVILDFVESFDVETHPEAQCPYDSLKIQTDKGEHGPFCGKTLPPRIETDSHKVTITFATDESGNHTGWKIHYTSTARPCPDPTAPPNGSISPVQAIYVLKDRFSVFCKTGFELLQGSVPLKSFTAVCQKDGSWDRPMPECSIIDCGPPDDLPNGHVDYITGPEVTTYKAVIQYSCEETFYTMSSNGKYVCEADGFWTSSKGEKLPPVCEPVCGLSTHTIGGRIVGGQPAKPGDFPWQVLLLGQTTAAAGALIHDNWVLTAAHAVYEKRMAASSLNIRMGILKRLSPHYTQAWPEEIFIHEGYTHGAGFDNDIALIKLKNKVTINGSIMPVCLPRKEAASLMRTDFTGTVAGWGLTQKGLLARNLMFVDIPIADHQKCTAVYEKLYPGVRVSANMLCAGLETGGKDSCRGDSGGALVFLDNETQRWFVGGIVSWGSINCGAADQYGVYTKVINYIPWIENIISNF
Sequence of MASP-2 (CCP1-CCP2-SP) (O00187 445-686): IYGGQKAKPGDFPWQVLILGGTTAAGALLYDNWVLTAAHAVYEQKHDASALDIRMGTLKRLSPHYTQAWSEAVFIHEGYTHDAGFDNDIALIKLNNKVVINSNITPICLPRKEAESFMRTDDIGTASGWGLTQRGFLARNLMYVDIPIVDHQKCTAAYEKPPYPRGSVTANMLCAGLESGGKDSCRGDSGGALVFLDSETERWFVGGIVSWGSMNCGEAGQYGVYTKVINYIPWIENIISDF

As a reminder, the Ki is the dissociation constant of the complex between target and ligand, obtained from inhibition or displacement. Take `Cc1cccc([C@H]2CN[C@@H](C(=O)N[C@@H](C)C(=O)NCc3ccc(C(=N)N)cc3)C2)c1` [compound 1247, (2R,4S)—N—((S)-1-((4-Carbamimidoylbenzyl)amino)-1-oxopropan-2-yl)-4-(m-tolyl)pyrrolidine-2-carboxamide]: the figures for the Ki on MASP-2 (CCP1-CCP2-SP) (read-out: MASP-2 Ki), on mMASP-2 (read-out: mMASP-2 Ki) and on human α-thrombin (Thrombin Ki (μM)) were less than 500 nM, less than 500 nM and 0.5 to 2.5 µM, respectively. For the same compound, on MASP-2 (CCP1-CCP2-SP), the “MASP-2 vs. thrombin selectivity” value was “*** (≥25 to <100-fold)”.
`Cc1ccc([C@@H]2CCN[C@@H](C(=O)N[C@@H](C)C(=O)NCc3ccc(C(=N)N)cc3)C2)cc1` [compound 1248, (2R,4R)—N—((S)-1-((4-Carbamimidoylbenzyl)amino)-1-oxopropan-2-yl)-4-(p-tolyl)piperidine-2-carboxamide]: the figures for the Ki at MASP-2 (CCP1-CCP2-SP) (read-out: MASP-2 Ki), at mMASP-2 (read-out: mMASP-2 Ki) and at human α-thrombin (Thrombin Ki (μM)) were less than 500 nM, less than 500 nM and 0.5 to 2.5 µM, respectively. Besides, the “MASP-2 vs. thrombin selectivity” value at MASP-2 (CCP1-CCP2-SP) is recorded as “** (≥5.0 to <25-fold)”.
Turning to `Cc1ccc([C@H]2CCN[C@@H](C(=O)N[C@@H](C)C(=O)NCc3ccc(C(=N)N)cc3)C2)cc1` [compound 1249, (2R,4S)—N—((S)-1-((4-Carbamimidoylbenzyl)amino)-1-oxopropan-2-yl)-4-(p-tolyl)piperidine-2-carboxamide], the inhibitory constant (Ki) on MASP-2 (CCP1-CCP2-SP) (read-out: MASP-2 Ki) is less than 500 nM; on mMASP-2 (read-out: mMASP-2 Ki), less than 500 nM; on human α-thrombin (Thrombin Ki (μM)), 10 to 25 µM. Also, on MASP-2 (CCP1-CCP2-SP), the “MASP-2 vs. thrombin selectivity” value is “**** (≥100-fold)”.
As for `C[C@H](NC(=O)[C@@H](CCc1ccccc1)NCc1ccc(N2CCN(S(C)(=O)=O)CC2)cc1)C(=O)NCc1ccc(C(=N)N)cc1` [compound 1250, (R)—N—((S)-1-((4-Carbamimidoylbenzyl)amino)-1-oxopropan-2-yl)-2-((4-(4-(methylsulfonyl)piperazin-1-yl)benzyl)amino)-4-phenylbutanamide], the Ki is less than 500 nM on MASP-2 (CCP1-CCP2-SP) (read-out: MASP-2 Ki), less than 500 nM at mMASP-2 (read-out: mMASP-2 Ki) and less than 0.5 µM on human α-thrombin (read-out: Thrombin Ki). The “MASP-2 vs. thrombin selectivity” value on MASP-2 (CCP1-CCP2-SP) was “* (≥1.0 to <5.0-fold)”.
Regarding `Cc1cccc([C@H]2CN[C@@H](C(=O)N[C@@H](C)C(=O)NCc3ccc(N)nc3C)C2)c1` [compound 1257, (2R,4S)—N—((S)-1-(((6-Amino-2-methylpyridin-3-yl)methyl)amino)-1-oxopropan-2-yl)-4-(m-tolyl)pyrrolidine-2-carboxamide], the Ki on MASP-2 (CCP1-CCP2-SP) (read-out: MASP-2 Ki) was less than 500 nM; at mMASP-2 (read-out: mMASP-2 Ki) it was 10000 to 25000 nM; on human α-thrombin (read-out: Thrombin Ki), more than 25 µM. Besides, on MASP-2 (CCP1-CCP2-SP), the “MASP-2 vs. thrombin selectivity” value is reported as “*** (≥25 to <100-fold)”.
Consider `C[C@H](NC(=O)[C@H](N)C/C=C/c1ccccc1)C(=O)NCc1ccc(N)nc1` [compound 1261, (R, E)-2-Amino-N—((S)-1-(((6-aminopyridin-3-yl)methyl)amino)-1-oxopropan-2-yl)-5-phenylpent-4-enamide], for which the figures for the inhibitory constant (Ki) at MASP-2 (CCP1-CCP2-SP), at mMASP-2 (read-out: mMASP-2 Ki) and at human α-thrombin (read-out: Thrombin Ki) were 10000 to 25000 nM, 10000 to 25000 nM and more than 25 µM, respectively. Besides, the “MASP-2 vs. thrombin selectivity” value at MASP-2 (CCP1-CCP2-SP) is “* (≥1.0 to <5.0-fold)”.
Turning to `CCCOC(=O)NC(=N)c1ccc(CNC(=O)[C@H](C)NC(=O)[C@H]2C[C@H](c3ccccc3)CN2)cc1` [compound 1263, Propyl (imino(4-(((S)-2-((2R,4R)-4-phenylpyrrolidine-2-carboxamido)propanamido)methyl)phenyl)methyl)carbamate], the inhibitory constant (Ki) at MASP-2 (CCP1-CCP2-SP) is 2500 to 10000 nM; on mMASP-2, 2500 to 10000 nM; on human α-thrombin (read-out: Thrombin Ki), more than 25 µM.
As to `CC(=O)O/N=C(\N)c1ccc(CNC(=O)[C@H](C)NC(=O)[C@H]2C[C@H](c3ccccc3)CN2)cc1` [compound 1264, (2R,4R)—N—((S)-1-((4-((Z)-N′-Acetoxycarbamimidoyl)benzyl)amino)-1-oxopropan-2-yl)-4-phenylpyrrolidine-2-carboxamide], the Ki on MASP-2 (CCP1-CCP2-SP) was 2500 to 10000 nM; at mMASP-2, 10000 to 25000 nM; at human α-thrombin (read-out: Thrombin Ki) it was more than 25 µM.
With `Cc1nc(N)ccc1CNC(=O)[C@H](C)NC(=O)[C@H]1C[C@H](c2ccccc2)CN1` [compound 1265, (2R,4R)—N—((S)-1-(((6-Amino-2-methylpyridin-3-yl)methyl)amino)-1-oxopropan-2-yl)-4-phenylpyrrolidine-2-carboxamide], the inhibitory constant (Ki) was less than 500 nM on MASP-2 (CCP1-CCP2-SP) (read-out: MASP-2 Ki), 2500 to 10000 nM at mMASP-2 (read-out: mMASP-2 Ki) and more than 25 µM at human α-thrombin (read-out: Thrombin Ki). Besides, the “MASP-2 vs. thrombin selectivity” value on MASP-2 (CCP1-CCP2-SP) is listed as “**** (≥100-fold)”.
As to `COc1cc(CNC(=O)[C@H](C)NC(=O)[C@H](N)CCc2ccccc2)cnc1N` [compound 1266, (R)-2-Amino-N—((S)-1-(((6-amino-5-methoxypyridin-3-yl)methyl)amino)-1-oxopropan-2-yl)-4-phenylbutanamide], the figures for the inhibitory constant (Ki) on MASP-2 (CCP1-CCP2-SP), at mMASP-2 (read-out: mMASP-2 Ki) and on human α-thrombin (read-out: Thrombin Ki) were 500 to 2500 nM, more than 25000 nM and more than 25 µM, respectively. Further, the “MASP-2 vs. thrombin selectivity” value at MASP-2 (CCP1-CCP2-SP) is “** (≥5.0 to <25-fold)”.
Turning to `C[C@H](NC(=O)[C@H](N)CCc1ccccc1)C(=O)NCc1cnc(N)c(F)c1` [compound 1267, (R)-2-amino-N—((S)-1-(((6-amino-5-fluoropyridin-3-yl)methyl)amino)-1-oxopropan-2-yl)-4-phenylbutanamide], the values for the inhibitory constant (Ki) on MASP-2 (CCP1-CCP2-SP), at mMASP-2 (read-out: mMASP-2 Ki) and on human α-thrombin (read-out: Thrombin Ki) were 2500 to 10000 nM, more than 25000 nM and more than 25 µM, respectively.
In the case of `C[C@H](NC(=O)[C@@H](CCc1ccccc1)NCc1ccc(C(N)=O)cc1)C(=O)NCc1ccc(C(=N)N)cc1` [compound 1268, 4-((((R)-1-(((S)-1-((4-Carbamimidoylbenzyl)amino)-1-oxopropan-2-yl)amino)-1-oxo-4-phenylbutan-2-yl)amino)methyl)benzamide], the inhibition constant Ki on MASP-2 (CCP1-CCP2-SP) (read-out: MASP-2 Ki) is less than 500 nM; on mMASP-2 (read-out: mMASP-2 Ki), less than 500 nM; on human α-thrombin (read-out: Thrombin Ki), less than 0.5 µM. For the same compound, the “MASP-2 vs. thrombin selectivity” value at MASP-2 (CCP1-CCP2-SP) is “* (≥1.0 to <5.0-fold)”.
As for `CC(=O)Nc1ccc(Cl)cc1CNC(=O)[C@H](C)NC(=O)[C@H]1C[C@H](c2ccccc2)CN1` [compound 1269, (2R,4R)—N—((S)-1-((2-Acetamido-5-chlorobenzyl)amino)-1-oxopropan-2-yl)-4-phenylpyrrolidine-2-carboxamide], the Ki was 500 to 2500 nM at MASP-2 (CCP1-CCP2-SP), 10000 to 25000 nM at mMASP-2 (read-out: mMASP-2 Ki) and more than 25 µM on human α-thrombin (read-out: Thrombin Ki). The “MASP-2 vs. thrombin selectivity” value at MASP-2 (CCP1-CCP2-SP) is given as “** (≥5.0 to <25-fold)”.
Consider `C[C@H](NC(=O)[C@H](N)CCc1ccccc1)C(=O)NCc1ccc(C(=N)N)nc1` [compound 1270, (R)-2-Amino-N—((S)-1-(((6-carbamimidoylpyridin-3-yl)methyl)amino)-1-oxopropan-2-yl)-4-phenylbutanamide], for which the inhibition constant (Ki) on MASP-2 (CCP1-CCP2-SP) (read-out: MASP-2 Ki) is less than 500 nM; at mMASP-2 (read-out: mMASP-2 Ki), less than 500 nM; on human α-thrombin (read-out: Thrombin Ki), less than 0.5 µM. Further, on MASP-2 (CCP1-CCP2-SP), the “MASP-2 vs. thrombin selectivity” value was “** (≥5.0 to <25-fold)”.
As to `C[C@H](NC(=O)[C@H]1C[C@@H](c2ccccc2)CCN1)C(=O)NCc1ccccc1` [compound 1271, (2R,4S)—N—((S)-1-(benzylamino)-1-oxopropan-2-yl)-4-phenylpiperidine-2-carboxamide], the results for the inhibitory constant (Ki) at MASP-2 (CCP1-CCP2-SP), on mMASP-2 (read-out: mMASP-2 Ki) and at human α-thrombin (read-out: Thrombin Ki) were 2500 to 10000 nM, more than 25000 nM and more than 25 µM, respectively.
As for `C[C@H](NC(=O)[C@H]1C[C@H](c2ccccc2)CN1)C(=O)NCc1ccc(C(=N)N)nc1` [compound 1272, (2R,4R)—N—((S)-1-(((6-Carbamimidoylpyridin-3-yl)methyl)amino)-1-oxopropan-2-yl)-4-phenylpyrrolidine-2-carboxamide], the results for the inhibition constant Ki on MASP-2 (CCP1-CCP2-SP) (read-out: MASP-2 Ki), at mMASP-2 (read-out: mMASP-2 Ki) and on human α-thrombin (Thrombin Ki (μM)) were less than 500 nM, less than 500 nM and 0.5 to 2.5 µM, respectively. The “MASP-2 vs. thrombin selectivity” value on MASP-2 (CCP1-CCP2-SP) is on record as “*** (≥25 to <100-fold)”.
